Source: PMC4487204, “The Neisseria gonorrhoeae Obg protein is an essential ribosome-associated GTPase and a potential drug target” (BMC Microbiology, 2015)

What was measured:
N-His-ObgGC (NGO1990) [1] = target: T1, N-His-ObgGC (NGO1990) (Neisseria gonorrhoeae, UniProt Q5F5D9); assay: mant fluorescence enhancement, plate reader; format: binding; conditions: 2 uM protein, 50 mM Tris-HCl pH 8.0, 50 mM KCl, 37 C
T1 construct: gene obg

N-His-ObgGC (NGO1990) [2] = target: T1, N-His-ObgGC (NGO1990); assay: single-turnover hydrolysis, decrease of mant fluorescence; format: biochemical; conditions: 0.3 uM mant-GTP prebound to 16 uM protein, 5 mM MgCl2, pH 8.0, 37 C; first-order rate constant

T1 sequence (Q5F5D9 whole entry): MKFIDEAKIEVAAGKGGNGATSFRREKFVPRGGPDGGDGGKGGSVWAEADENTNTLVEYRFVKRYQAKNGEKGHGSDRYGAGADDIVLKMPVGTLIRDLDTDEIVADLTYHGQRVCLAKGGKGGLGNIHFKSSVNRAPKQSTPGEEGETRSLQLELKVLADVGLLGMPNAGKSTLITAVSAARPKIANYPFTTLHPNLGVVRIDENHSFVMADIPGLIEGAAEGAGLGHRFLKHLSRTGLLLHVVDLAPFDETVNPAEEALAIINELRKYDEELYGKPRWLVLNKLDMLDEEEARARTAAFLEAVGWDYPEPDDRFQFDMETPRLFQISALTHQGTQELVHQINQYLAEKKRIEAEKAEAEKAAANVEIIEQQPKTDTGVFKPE

SMILES	fold enhancement in mant-nucleotide fluorescence (N-His-ObgGC (NGO1990) [1]; 0.3 uM mant-GDP, no Mg2+)	kh (N-His-ObgGC (NGO1990) [2])	fold enhancement in mant-nucleotide fluorescence (N-His-ObgGC (NGO1990) [1]; 0.3 uM mant-GTP, 5 mM Mg2+)
CNc1ccccc1C(=O)O[C@H]1[C@@H](O)[C@H](n2cnc3c(=O)[nH]c(N)nc32)O[C@@H]1COP(=O)(O)OP(=O)(O)O [mant-GDP]	1.3 fold	–	–
CNc1ccccc1C(=O)O[C@H]1[C@@H](O)[C@H](n2cnc3c(=O)[nH]c(N)nc32)O[C@@H]1COP(=O)(O)OP(=O)(O)OP(=O)(O)O [mant-GTP]	–	0.00023 s⁻¹	1.9 fold
